Measured values reported in patent US10064844B2, “Pharmaceutical compositions comprising an aromatse inhibitors” (MEREO BIOPHARMA 2 LIMITED, priority 2011, dated 2018).

How the values were obtained:
[1] = Pharmacokinetics after oral administration to rats; format: in vivo
[2] = tested on: androstenedione-induced uterine hypertrophy; experiment: Inhibition of androstenedione-induced uterine hypertrophy in rats (aromatase dependent model); format: in vivo; details: Rattus norvegicus
[3] = tested on: DMBA-induced mammary tumors; experiment: Inhibition of DMBA-induced mammary tumors in rats (aromatase dependent model); format: in vivo; details: Rattus norvegicus
[4] = Single ascending dose study in pre- and post-menopausal women: pharmacokinetics; format: in vivo, human
Source text: (§1) A […] (MTD) was not reached. […] Table 4 presents the PK parameters based on preliminary analysis of the concentration-time profile obtained from this study.

[5] = tested on: estrone, estrone sulfate and estradiol; experiment: Single ascending dose study in women: pharmacodynamics (estrogen suppression); format: in vivo, human
Experimental: Patients received either 0.1 mg, 1 mg, and 10 mg drug substance containing hard gelatin capsules as described in Example 2 or appropriate matching placebo capsules.
as §1
(§2) There were no changes in bone density by DEXA after 6 months.

[6] = tested on: other enzymes involved in steroid hormone synthesis or metabolism; experiment: Single ascending dose study in women: other steroid hormone enzymes and hormone levels; format: in vivo, human; details: single doses
[7] = Single ascending dose study in women: safety and tolerability; format: in vivo
Source text: as §1, §2

[8] = Solid state properties of the drug substance (hygroscopicity, water solubility); format: physicochemical; details: crystalline powder

## N#Cc1ccc(C(F)(c2ccc(C#N)cc2)n2cncn2)cc1 [CGP47645, 4,4′-[fluoro-(1-H-1,2,4-triazol-1-yl)methylene]bisbenzonitrile]
[1]
  exposure expressed as AUC versus dose: proportional to the administered dose
[2]
  ED50: 3 µg/kg
[3]
  ED50: 10 µg/kg
[4]; 0.1 mg cohorts
  difference in pharmacokinetics between post- and pre-menopausal women: No differences
[4]; female, human, in vivo
  Tmax: 0.5 to 2 h
  half-life: 552 to 648 h
  median Tmax: ≤ 1 h
[4]; female, human, in vivo, 0.1 mg
  AUC(0-tlast), mean: 116.2 ng·h/mL
  Cmax, mean: 1.7 ng/mL
[4]; female, human, in vivo, 1 mg
  T1/2, mean: 538 h
[4]; female, human, in vivo, 20 mg
  T1/2, mean: 646 h
[4]; female, human, in vivo, po, 0.03 mg
  Tmax: 0.6 h
[4]; human, in vivo
  dose proportionality of pharmacokinetics (Cmax & AUC): dose proportional pharmacokinetics
  half life in humans compared with letrozole: longer half life in humans than does letrozole
[4]; single doses, women
  inter-subject variability: 10-30%
[5]; post-menopausal women, chemiluminescence or radioimmunoassay
  lowest single dose at which maximal estrogen suppression was observed: 0.1 mg
[5]; postmenopausal women
  lowest single dose at which transient estrogen suppression was seen: 0.01 mg
[6]
  inhibition of other enzymes involved in steroid hormone synthesis or metabolism: No inhibition
[7]; in vivo
  changes in bone density by DEXA: no changes
[7]; single doses 0.01 mg through 20 mg, women
  minimal toxic dose (MTD): not reached
[8]
  solubility in water: poorly soluble in water
